Experimental data taken from patent US20250051526A1, “POLYMERS COMPRISING GLYCOLIPIDS AND METHODS FOR PRODUCING AND USING THE SAME” (priority 2021, published 2025).

Assay: binding preference from monorhamnolipid-metal conditional stability constants for 26 metals
Conditions: metals of environmental concern (e.g., Cd, Pd, Hg) versus common soil and water cations
From the text: They are considered “green” molecules due to their natural products from bacteria (e.g., Pseudomonas aeruginosa), biodegradability, and low toxicity. The present inventors have experimentally determined the monorhamnolipid-metal conditional stability constants ([…]) for 26 metals of interest.

binding preference for metals of environmental concern over common soil and water cations: 6-8 orders of magnitude
Substance: monorhamnolipid
